Measurements from ChEMBL document CHEMBL5696442, “Discovery of type II inhibitors of TGFβ-activated kinase 1 (TAK1) and mitogen-activated protein kinase kinase kinase kinase 2 (MAP4K2)” (J Med Chem, 2015).
Calls of active or inactive are those of the source. The rule behind the calls is not given here.

What was measured:
[1] = target: Serine/threonine-protein kinase SMG1 (Homo sapiens) (UniProt Q96Q15); test: Inhibition of SMG1 ATP labeling site in human Huh-7 cells at 1 uM by KiNativ Profiling analysis relative to control; assay type: cell-based
[2] = target: Macrophage colony-stimulating factor 1 receptor (Homo sapiens) (UniProt P07333); test: Inhibition of CSF1R (unknown origin) at 10 uM by Ambit Kinomescan binding assay relative to control
[3] = target: T1, Aurora kinase A (Homo sapiens) (UniProt O14965); test: Inhibition of AurA K2 labeling site harbouring VIHRDIKPENLLLGSAGELK in human Huh-7 cells at 1 uM by KiNativ Profiling analysis relative to control; assay type: cell-based
T1 sequence (whole entry): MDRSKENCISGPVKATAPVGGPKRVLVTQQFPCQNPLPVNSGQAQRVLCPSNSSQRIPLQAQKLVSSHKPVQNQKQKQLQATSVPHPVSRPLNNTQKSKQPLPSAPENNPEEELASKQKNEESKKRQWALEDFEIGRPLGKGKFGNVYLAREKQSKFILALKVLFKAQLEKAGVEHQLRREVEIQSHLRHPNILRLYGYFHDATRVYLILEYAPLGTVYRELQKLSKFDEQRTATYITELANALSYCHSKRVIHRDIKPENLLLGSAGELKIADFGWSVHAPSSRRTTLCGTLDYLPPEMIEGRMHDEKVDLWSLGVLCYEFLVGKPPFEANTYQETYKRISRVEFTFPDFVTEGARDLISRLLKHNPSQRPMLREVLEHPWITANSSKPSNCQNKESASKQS

[4] = target: T2, Mitogen-activated protein kinase kinase kinase 5 (Homo sapiens) (UniProt Q99683); test: Inhibition of MAP3K5 Lys1 labeling site harbouring IAIKEIPER in human A-375 cells at 5 uM by KiNativ Profiling analysis relative to control; assay type: cell-based
T2 sequence (whole entry): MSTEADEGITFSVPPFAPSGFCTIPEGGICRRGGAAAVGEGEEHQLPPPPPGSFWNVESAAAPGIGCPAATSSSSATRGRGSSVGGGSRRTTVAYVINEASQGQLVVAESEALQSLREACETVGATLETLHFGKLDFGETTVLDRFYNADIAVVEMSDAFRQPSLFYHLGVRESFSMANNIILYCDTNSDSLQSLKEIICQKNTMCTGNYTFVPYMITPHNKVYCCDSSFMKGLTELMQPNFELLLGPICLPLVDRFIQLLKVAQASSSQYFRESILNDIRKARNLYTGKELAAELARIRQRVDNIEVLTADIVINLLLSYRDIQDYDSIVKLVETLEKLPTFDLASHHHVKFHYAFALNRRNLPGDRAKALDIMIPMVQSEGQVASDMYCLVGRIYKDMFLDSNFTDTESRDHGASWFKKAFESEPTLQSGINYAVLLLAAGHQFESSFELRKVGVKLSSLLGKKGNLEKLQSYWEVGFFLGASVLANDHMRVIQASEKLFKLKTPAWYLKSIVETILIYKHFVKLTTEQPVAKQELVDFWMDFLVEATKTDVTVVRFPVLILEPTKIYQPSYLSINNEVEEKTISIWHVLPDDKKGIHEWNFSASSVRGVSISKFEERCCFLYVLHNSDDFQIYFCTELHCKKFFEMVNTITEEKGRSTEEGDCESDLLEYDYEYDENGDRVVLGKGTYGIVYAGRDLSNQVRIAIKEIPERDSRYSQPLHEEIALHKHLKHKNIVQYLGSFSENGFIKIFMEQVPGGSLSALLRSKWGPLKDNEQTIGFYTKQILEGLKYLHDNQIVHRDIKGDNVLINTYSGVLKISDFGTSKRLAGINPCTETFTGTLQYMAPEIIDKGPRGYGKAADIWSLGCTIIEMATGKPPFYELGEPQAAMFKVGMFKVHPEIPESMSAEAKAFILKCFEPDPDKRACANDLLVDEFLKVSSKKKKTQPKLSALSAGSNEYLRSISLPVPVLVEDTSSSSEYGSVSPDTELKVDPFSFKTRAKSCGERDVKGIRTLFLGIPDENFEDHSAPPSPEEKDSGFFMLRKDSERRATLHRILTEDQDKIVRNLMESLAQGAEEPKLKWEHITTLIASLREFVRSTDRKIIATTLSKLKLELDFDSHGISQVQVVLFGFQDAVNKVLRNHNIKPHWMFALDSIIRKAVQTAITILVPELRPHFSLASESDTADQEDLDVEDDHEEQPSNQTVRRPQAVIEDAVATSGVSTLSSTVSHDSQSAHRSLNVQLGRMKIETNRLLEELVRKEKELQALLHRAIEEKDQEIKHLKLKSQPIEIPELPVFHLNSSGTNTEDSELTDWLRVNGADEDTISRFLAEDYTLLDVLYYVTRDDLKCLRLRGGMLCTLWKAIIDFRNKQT

[5] = target: 5'-AMP-activated protein kinase catalytic subunit alpha-1 (Homo sapiens) (UniProt Q13131); test: Inhibition of AMPK-alpha1 (unknown origin) at 10 uM by Ambit Kinomescan binding assay relative to control
[6] = target: Tyrosine-protein kinase Yes (Homo sapiens) (UniProt P07947); test: Inhibition of YES ACT labeling site in human Huh-7 cells at 10 uM by KiNativ Profiling analysis relative to control; assay type: cell-based
[7] = target: T3, Scaffold protein ILK (Homo sapiens) (UniProt Q13418); test: Inhibition of ILK Protein Kinase Domain in human A-375 cells at 0.05 uM by KiNativ Profiling analysis relative to control; assay type: cell-based
T3 sequence (whole entry): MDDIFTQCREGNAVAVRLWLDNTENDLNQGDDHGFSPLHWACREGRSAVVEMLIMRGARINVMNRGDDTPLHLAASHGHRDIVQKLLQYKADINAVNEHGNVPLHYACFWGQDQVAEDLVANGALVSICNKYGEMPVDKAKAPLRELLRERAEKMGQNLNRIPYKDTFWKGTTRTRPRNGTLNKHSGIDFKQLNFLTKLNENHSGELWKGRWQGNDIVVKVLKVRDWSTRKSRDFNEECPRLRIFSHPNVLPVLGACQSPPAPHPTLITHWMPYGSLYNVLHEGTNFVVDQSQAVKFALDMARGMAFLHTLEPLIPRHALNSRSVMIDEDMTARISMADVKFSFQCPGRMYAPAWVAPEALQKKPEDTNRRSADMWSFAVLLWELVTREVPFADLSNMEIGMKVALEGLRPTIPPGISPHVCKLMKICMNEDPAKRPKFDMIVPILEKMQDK

[8] = target: Calcium/calmodulin-dependent protein kinase type II subunit delta (Homo sapiens) (UniProt Q13557); test: Inhibition of CaMK2d Lys2 labeling site in human Huh-7 cells at 1 uM by KiNativ Profiling analysis relative to control; assay type: cell-based
[9] = target: Rho-associated protein kinase 1 (Homo sapiens) (UniProt Q13464); test: Inhibition of ROCK1 Lys2 labeling site in human Huh-7 cells at 1 uM by KiNativ Profiling analysis relative to control; assay type: cell-based
[10] = target: 5'-AMP-activated protein kinase catalytic subunit alpha-1 (Homo sapiens) (UniProt Q13131); test: Inhibition of AMPKa1 Lys2 labeling site in human Huh-7 cell lysate at 1 uM by KiNativ Profiling analysis relative to control; assay type: subcellular

Sequence of 5'-AMP-activated protein kinase catalytic subunit alpha-1 (Homo sapiens) (Q13131 whole entry, looked up): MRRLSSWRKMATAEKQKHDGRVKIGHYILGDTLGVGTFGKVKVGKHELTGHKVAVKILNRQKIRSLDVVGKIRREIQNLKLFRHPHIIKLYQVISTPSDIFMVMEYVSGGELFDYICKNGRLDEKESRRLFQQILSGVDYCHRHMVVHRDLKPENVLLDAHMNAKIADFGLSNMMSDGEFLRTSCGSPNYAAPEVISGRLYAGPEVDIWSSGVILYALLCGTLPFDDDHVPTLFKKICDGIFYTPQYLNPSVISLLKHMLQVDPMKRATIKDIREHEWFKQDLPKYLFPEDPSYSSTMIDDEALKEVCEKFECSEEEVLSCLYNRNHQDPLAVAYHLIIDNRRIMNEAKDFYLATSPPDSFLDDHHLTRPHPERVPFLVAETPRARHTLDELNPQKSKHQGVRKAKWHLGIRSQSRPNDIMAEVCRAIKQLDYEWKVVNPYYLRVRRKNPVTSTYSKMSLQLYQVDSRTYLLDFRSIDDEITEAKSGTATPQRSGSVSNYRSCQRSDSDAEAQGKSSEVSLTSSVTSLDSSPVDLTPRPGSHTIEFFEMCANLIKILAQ
Sequence of Tyrosine-protein kinase Yes (Homo sapiens) (P07947 2-543 limits assumed): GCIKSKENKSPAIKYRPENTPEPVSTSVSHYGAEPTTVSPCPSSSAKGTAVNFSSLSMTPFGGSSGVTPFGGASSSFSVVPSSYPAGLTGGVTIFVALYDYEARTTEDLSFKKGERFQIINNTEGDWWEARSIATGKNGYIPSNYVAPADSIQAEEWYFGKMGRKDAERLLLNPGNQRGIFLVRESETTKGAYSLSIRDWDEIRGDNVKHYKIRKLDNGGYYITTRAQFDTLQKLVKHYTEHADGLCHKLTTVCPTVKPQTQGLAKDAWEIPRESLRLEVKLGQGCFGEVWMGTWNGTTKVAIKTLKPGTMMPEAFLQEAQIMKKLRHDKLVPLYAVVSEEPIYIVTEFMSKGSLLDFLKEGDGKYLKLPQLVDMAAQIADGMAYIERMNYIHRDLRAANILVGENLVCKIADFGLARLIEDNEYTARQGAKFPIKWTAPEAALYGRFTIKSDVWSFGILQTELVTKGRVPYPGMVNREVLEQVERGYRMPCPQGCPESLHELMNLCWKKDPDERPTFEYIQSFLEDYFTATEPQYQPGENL
Sequence of Serine/threonine-protein kinase SMG1 (Homo sapiens) (Q96Q15 whole entry): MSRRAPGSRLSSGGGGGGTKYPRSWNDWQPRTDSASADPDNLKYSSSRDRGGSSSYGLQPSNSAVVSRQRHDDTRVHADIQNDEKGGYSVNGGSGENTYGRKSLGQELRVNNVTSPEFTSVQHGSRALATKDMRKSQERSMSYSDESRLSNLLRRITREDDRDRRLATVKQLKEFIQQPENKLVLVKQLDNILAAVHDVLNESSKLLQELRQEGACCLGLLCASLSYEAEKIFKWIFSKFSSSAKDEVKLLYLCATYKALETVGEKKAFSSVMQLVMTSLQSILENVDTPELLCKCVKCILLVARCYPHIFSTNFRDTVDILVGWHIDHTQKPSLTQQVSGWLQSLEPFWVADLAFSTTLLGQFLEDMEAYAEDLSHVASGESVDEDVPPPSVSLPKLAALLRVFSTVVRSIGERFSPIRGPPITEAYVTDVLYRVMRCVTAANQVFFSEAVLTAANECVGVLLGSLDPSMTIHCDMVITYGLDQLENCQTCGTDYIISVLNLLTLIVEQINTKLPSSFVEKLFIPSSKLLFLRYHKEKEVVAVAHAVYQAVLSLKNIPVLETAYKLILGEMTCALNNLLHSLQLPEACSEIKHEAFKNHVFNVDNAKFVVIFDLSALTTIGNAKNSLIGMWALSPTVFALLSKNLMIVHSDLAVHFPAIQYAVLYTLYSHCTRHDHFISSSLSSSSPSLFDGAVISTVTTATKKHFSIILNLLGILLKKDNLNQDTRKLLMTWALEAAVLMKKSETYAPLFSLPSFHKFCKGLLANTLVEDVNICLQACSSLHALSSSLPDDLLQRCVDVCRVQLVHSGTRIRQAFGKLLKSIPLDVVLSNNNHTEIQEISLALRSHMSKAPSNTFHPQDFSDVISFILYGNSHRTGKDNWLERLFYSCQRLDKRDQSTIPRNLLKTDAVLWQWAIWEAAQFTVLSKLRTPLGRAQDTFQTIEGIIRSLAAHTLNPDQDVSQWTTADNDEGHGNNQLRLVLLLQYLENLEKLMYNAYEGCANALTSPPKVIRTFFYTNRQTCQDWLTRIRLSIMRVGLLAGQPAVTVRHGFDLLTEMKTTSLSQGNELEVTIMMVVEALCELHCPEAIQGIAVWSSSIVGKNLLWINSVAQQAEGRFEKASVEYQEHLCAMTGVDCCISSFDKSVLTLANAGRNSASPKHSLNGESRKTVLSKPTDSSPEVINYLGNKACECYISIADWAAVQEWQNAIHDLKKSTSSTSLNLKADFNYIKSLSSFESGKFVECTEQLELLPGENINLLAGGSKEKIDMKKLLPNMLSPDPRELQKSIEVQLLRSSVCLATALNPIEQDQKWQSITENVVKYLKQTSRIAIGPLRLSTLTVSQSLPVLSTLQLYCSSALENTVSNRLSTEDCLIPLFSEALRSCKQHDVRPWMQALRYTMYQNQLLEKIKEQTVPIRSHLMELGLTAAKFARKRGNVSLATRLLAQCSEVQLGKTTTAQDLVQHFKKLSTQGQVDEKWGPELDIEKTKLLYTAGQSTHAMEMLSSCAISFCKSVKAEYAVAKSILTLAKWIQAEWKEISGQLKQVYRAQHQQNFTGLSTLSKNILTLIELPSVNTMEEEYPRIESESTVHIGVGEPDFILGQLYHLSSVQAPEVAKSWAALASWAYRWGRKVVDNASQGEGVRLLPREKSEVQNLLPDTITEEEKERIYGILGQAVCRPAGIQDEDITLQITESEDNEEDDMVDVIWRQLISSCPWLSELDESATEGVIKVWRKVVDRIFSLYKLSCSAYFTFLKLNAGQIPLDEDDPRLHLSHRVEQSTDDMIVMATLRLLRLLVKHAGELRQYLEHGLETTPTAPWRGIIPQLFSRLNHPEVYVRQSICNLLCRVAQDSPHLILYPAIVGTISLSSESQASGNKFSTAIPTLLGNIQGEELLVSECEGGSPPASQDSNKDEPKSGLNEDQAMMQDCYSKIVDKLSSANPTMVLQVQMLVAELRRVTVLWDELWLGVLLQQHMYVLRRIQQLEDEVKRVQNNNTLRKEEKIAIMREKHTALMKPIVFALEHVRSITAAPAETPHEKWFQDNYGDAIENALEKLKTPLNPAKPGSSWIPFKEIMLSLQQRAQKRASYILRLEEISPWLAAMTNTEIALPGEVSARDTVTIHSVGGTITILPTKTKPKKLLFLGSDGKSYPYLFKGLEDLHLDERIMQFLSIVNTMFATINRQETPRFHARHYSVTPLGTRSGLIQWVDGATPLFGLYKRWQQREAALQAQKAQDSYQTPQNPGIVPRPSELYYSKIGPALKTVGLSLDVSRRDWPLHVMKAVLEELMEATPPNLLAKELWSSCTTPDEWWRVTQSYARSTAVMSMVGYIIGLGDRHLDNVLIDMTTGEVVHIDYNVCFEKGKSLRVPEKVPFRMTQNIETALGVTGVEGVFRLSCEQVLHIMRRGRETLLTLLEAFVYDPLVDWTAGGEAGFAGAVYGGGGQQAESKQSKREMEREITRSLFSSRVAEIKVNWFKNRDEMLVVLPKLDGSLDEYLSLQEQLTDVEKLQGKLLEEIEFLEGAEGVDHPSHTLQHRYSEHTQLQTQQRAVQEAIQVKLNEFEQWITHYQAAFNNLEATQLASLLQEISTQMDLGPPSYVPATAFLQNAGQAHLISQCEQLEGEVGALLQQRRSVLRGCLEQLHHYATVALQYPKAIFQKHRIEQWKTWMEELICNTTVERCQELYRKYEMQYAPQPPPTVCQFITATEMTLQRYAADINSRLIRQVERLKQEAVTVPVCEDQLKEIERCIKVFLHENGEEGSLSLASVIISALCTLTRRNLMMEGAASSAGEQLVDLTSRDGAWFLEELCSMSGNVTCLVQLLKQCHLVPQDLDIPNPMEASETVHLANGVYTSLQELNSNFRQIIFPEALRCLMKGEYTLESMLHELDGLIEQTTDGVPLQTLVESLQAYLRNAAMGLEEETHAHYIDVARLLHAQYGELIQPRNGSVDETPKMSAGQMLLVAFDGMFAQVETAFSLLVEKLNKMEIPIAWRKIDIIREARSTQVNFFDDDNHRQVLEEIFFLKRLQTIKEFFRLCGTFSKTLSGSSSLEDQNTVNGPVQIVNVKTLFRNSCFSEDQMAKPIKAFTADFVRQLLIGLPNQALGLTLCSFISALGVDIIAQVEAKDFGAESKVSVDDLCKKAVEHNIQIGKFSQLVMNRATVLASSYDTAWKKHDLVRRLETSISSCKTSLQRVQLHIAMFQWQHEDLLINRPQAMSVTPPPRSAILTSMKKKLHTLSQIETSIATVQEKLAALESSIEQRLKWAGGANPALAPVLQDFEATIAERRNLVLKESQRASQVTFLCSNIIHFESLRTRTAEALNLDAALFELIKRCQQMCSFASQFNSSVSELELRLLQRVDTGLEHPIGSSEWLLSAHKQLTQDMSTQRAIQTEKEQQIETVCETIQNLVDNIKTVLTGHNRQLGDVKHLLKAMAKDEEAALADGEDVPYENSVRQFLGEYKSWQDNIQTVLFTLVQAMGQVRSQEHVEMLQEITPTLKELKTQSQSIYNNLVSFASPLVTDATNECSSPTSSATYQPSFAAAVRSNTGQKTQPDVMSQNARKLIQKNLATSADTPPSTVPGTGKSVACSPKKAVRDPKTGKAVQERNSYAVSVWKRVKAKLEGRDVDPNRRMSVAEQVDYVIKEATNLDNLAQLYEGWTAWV

CCN1CCN(Cc2ccc(NC(=O)c3ccc(C)c(Oc4ccnc5[nH]ccc45)c3)cc2C(F)(F)F)CC1
inhibition [1]: 13% | inhibition [2]: 0% | inhibition [3]: inactive | inhibition [4]: -0.6% | inhibition [5]: 33% | inhibition [6]: 25.2%

CCN1CCN(Cc2ccc(NC(=O)c3ccc(C)c(/C=C/c4cnc5[nH]ccc5c4OC)c3)cc2C(F)(F)F)CC1
inhibition [7]: -9.6%

CNc1cc(Oc2cc(C(=O)Nc3cc(N4CCN(C)CC4)cc(C(F)(F)F)c3)ccc2C)ncn1
inhibition [8]: 20.3% | inhibition [9]: -1% | inhibition [10]: 0.5%
